Legend:
[1] = tested on: adults with biopsy-confirmed NASH; assay: MAESTRO-NASH: adverse events, serious adverse events, malignancies
Text: Safety end points included adverse events, biochemical assessments, and clinical assessments. Selected serious adverse events (including deaths, cardiovascular events, and potential drug-induced liver injury) were adjudicated by independent, external event-adjudication committees whose members were unaware of the trial-group assignments.

[2] = Effect of food (high-fat meal) on pharmacokinetics; type: in vivo, human; conditions: high-fat meal vs fasted
[3] = 100 mg (n = 323), safety population

Compound: CC(C)c1cc(Oc2c(Cl)cc(-n3nc(C#N)c(=O)[nH]c3=O)cc2Cl)n[nH]c1=O [Resmetirom, 2-(3,5-dichloro-4-((5-isopropyl-6-oxo-1,6-dihydropyridazin-3-yl)oxy)phenyl)-3,5-dioxo-2,3,4,5-tetrahydro-1,2,4-triazine-6-carbonitrile]
- Arthralgia, number of patients ([1]; 100 mg): 35
- Arthralgia, percent of patients ([1]; 100 mg): (10.8) percent
- Back pain, number of patients ([1]; 100 mg): 27
- Back pain, percent of patients ([1]; 100 mg): (8.4) percent
- Cancer reported, patients ([1]; 100 mg): 3.4%
- Covid-19, number of patients ([1]; 100 mg): 54
- Covid-19, percent of patients ([1]; 100 mg): (16.7) percent
- Diarrhea, number of patients ([1]; 100 mg): 108
- Diarrhea, percent of patients ([1]; 100 mg): (33.4) percent
- Fatal adverse event, number of patients ([1]; 100 mg): 2
- Fatal adverse event, percent of patients ([1]; 100 mg): (0.6) percent
- Fatigue, number of patients ([1]; 100 mg): 26
- Fatigue, percent of patients ([1]; 100 mg): (8.0) percent
- Grade 1: mild, number of patients ([1]; 100 mg): 66
- Grade 1: mild, percent of patients ([1]; 100 mg): (20.4) percent
- Grade 2: moderate, number of patients ([1]; 100 mg): 183
- Grade 2: moderate, percent of patients ([1]; 100 mg): (56.7) percent
- Grade 3 or higher: severe, number of patients ([1]; 100 mg): 47
- Grade 3 or higher: severe, percent of patients ([1]; 100 mg): (14.6) percent
- Major adverse cardiovascular event, number of patients ([1]; 100 mg): 1
- Major adverse cardiovascular event, percent of patients ([1]; 100 mg): (0.3) percent
- Nausea, number of patients ([1]; 100 mg): 61
- Nausea, percent of patients ([1]; 100 mg): (18.9) percent
- Other cardiovascular event, number of patients ([1]; 100 mg): 1
- Other cardiovascular event, percent of patients ([1]; 100 mg): (0.3) percent
- Pruritus, number of patients ([1]; 100 mg): 37
- Pruritus, percent of patients ([1]; 100 mg): (11.5) percent
- Urinary tract infection, number of patients ([1]; 100 mg): 27
- Urinary tract infection, percent of patients ([1]; 100 mg): (8.4) percent
- ≥1 Adverse event attributed to resmetirom, number of patients ([1]; 100 mg): 134
- ≥1 Adverse event attributed to resmetirom, percent of patients ([1]; 100 mg): (41.5) percent
- ≥1 Adverse event, number of patients ([1]; 100 mg): 296
- ≥1 Adverse event, percent of patients ([1]; 100 mg): (91.6) percent
- ≥1 Serious adverse event attributed to resmetirom, number of patients ([1]; 100 mg): 0
- ≥1 Serious adverse event, number of patients ([1]; 100 mg): 41
- Malignancy: Basal cell carcinoma ([1]; 100 mg (N = 323)): 3 (0.9) n (%)
- Malignancy: Breast carcinoma ([1]; 100 mg (N = 323)): 2 (0.6) n (%)
- Malignancy: Malignant melanoma ([1]; 100 mg (N = 323)): 1 (0.3) n (%)
- Malignancy: Skin cancer (squamous cell) ([1]; 100 mg (N = 323)): 1 (0.3) n (%)
- Patients with any malignancy ([1]; 100 mg (N = 323)): 11 (3.4) n (%)
- Patients with at least one TE-SAEs ([1]; 100 mg (N = 323)): 41 (12.7) n (%)
- SAE: Acute Gallstone-related disorders ([1]; 100 mg (N = 323)): 3 (0.9) n (%)
- SAE: COVID-19 ([1]; 100 mg (N = 323)): 1 (0.3) n (%)
- SAE: COVID-19 pneumonia ([1]; 100 mg (N = 323)): 0 n (%)
- SAE: Cardiac disorders ([1]; 100 mg (N = 323)): 3 (0.9) n (%)
- SAE: Gastrointestinal disorders ([1]; 100 mg (N = 323)): 7 (2.2) n (%)
- SAE: General disorders and administration site conditions ([1]; 100 mg (N = 323)): 5 (1.5) n (%)
- SAE: Infections and infestations ([1]; 100 mg (N = 323)): 5 (1.5) n (%)
- SAE: Injury, poisoning and procedural complications ([1]; 100 mg (N = 323)): 8 (2.5) n (%)
- SAE: Musculoskeletal and connective tissue disorders ([1]; 100 mg (N = 323)): 1 (0.3) n (%)
- SAE: Nervous system disorders ([1]; 100 mg (N = 323)): 2 (0.6) n (%)
- SAE: Post procedural haemorrhage ([1]; 100 mg (N = 323)): 1 (0.3) n (%)
- SAE: Respiratory, thoracic and mediastinal disorders ([1]; 100 mg (N = 323)): 4 (1.2) n (%)
- Adverse event: Abdominal distension [1, 3]: 13 (4.0) no. (%)
- Adverse event: Abdominal pain [1, 3]: 29 (9.0) no. (%)
- Adverse event: Abdominal pain upper [1, 3]: 27 (8.4) no. (%)
- Adverse event: Constipation [1, 3]: 28 (8.7) no. (%)
- Adverse event: Cough [1, 3]: 18 (5.6) no. (%)
- Adverse event: Decreased appetite [1, 3]: 16 (5.0) no. (%)
- Adverse event: Dizziness [1, 3]: 19 (5.9) no. (%)
- Adverse event: Gastrooesophageal reflux disease [1, 3]: 7 (2.2) no. (%)
- Adverse event: Headache [1, 3]: 25 (7.7) no. (%)
- Adverse event: Hypertension [1, 3]: 13 (4.0) no. (%)
- Adverse event: Muscle spasms [1, 3]: 22 (6.8) no. (%)
- Adverse event: Nasopharyngitis [1, 3]: 20 (6.2) no. (%)
- Adverse event: Pain in extremity [1, 3]: 12 (3.7) no. (%)
- Adverse event: Procedural pain [1, 3]: 9 (2.8) no. (%)
- Adverse event: Rash [1, 3]: 21 (6.5) no. (%)
- Adverse event: Sinusitis [1, 3]: 13 (4.0) no. (%)
- Adverse event: Type 2 diabetes [1, 3]: 26 (8.0) no. (%)
- Adverse event: Upper respiratory tract infection [1, 3]: 8 (2.5) no. (%)
- Adverse event: Vomiting [1, 3]: 35 (10.8) no. (%)
- drug-induced liver injury ([1]; in vivo): no incidence of drug-induced liver injury
- severe diarrhea ([1]; in vivo): no episodes of severe diarrhea
- median duration of diarrhea ([1]; independent of dose): 15 to 20 days
- decrease in AUC with food [2]: 11%
- decrease in Cmax with food [2]: 33%
- Tmax ([2]; human, plasma, oral, read-out: delay in median Tmax with food): ~2 h

Source: patent US12377104B1, “Methods for treating a fatty liver disease” (Madrigal Pharmaceuticals, Inc., priority 2024, dated 2025)
